Experimental findings from patent US10961510B2, “Exosome active formulation for promoting endothelial cell angiogenesis, and preparation method and application” (INSTITUTE OF MICROCIRCULATION of the CHINESE ACADEMY OF …, priority 2018, dated 2021) are described below.

The assay deals with human umbilical vein endothelial cells (HUVECs). Description: Angiogenesis (tube formation) ability of HUVECs on BME-coated 96-well plate, total branching length by Image J. The following applies: 10 ng/mL TNF-α alone, 18 hours intervention, compared with the Con group, P=0.002. It counts as cell-based. As to the method:
The angiogenesis ability of human umbilical vein endothelial cells (HUVECs) was detected by using a 96-well plate coated with a basement membrane extract (BME). 50 μL of a BME solution was added in each well, which was placed in a cell incubator at 37° C. for 30 minutes to form a jelly substance. 10000 endothelial cells were inoculated in each well, and the volume of the endothelial cell culture medium was 100 μL. […]
According to the real-time observation for the angiogenesis morphology, when each of the above groups was subjected to intervention treatment for 18 hours, the angiogenesis morphology of each group reached a status for the optimum observation and quantitation. […]

For the substance TNF-α, the “endothelial cell angiogenesis (total branching length of each view field)” value is “significantly inhibit endothelial cell angiogenesis”.
